Data taken from patent US20220184222A1, “BICYCLE TOXIN CONJUGATES AND USES THEREOF” (BicycleTx Limited, priority 2019, published 2022).
Starred links: 1 amine or outer side, 2 acyl side, 3 side chain; linkers in the order of their positions; H or OH if unused. Non-standard residues stand in square brackets, D forms with d. Residues, ends and D or L forms follow the SMILES beside them. *: point of attachment. Dolaproine = CO[C@@H]([C@@H]1CCCN1)[C@@H](C)C(=O)O; Dil = CC[C@H](C)[C@H](NC)[C@@H](CC(=O)O)OC; PABC = O=C(OCc1ccc(N[*:1])cc1)[*:2]; X1 = O=C(CCCC(=O)*)ON1C(=O)CCC1=O; X2 = C[C@@H](N*)[C@@H](O)c1ccccc1; Cit = NC(=O)NCCC[C@H](N)C(=O)O; NMeV = CN[C@H](C(=O)O)C(C)C

Legend:
CTG-2011 = assay: Champions TumorGraft NSCLC PDX efficacy, model CTG-2011; assay type: in vivo, Mus musculus
Protocol: (§1) Mice were implanted subcutaneously into the left flank with tumor fragments from one of the various models. After tumors grew to an average of 150-300 mm^3, mice were treated by IV administration Q7Dx4 (n=2) with vehicle or 3 mg/kg of BT5528. Effects on tumor growth were evaluated by measuring percent tumor growth inhibition (% TGI), and the number of complete responders (CR), partial responders (PR), and tumor-free survivors (TFS). Tolerability was assessed by body weight loss, lethality, and clinical signs of adverse treatment-related side effects. Tumor volumes and body weights were measured twice a week.
(§2) Dosing solutions of BT5528 […] were pre-formulated. These dosing solutions were stored at −80° C. in the dark. On each day of dosing, a frozen aliquot of each test agent was thawed, stored at 2-8° C. and used for dosing.
(§3) The animals used in this study are described below: • Species: Mus musculus • Strain: Athymic Nude-Foxn1^nu (immune-compromised) • Source: Envigo (Indianapolis, Ind., USA) • Number of animals per group: 2 • Age and sex: At least 6-8 weeks of age at start of dosing, female • Weight: At least 18 grams at start of dosing • Acclimation period: 3 days
(§4) Stock mice were implanted with tumor cells from Champions TumorGraft® models CTG-0160, CTG-0170, CTG-0178, CTG-0192, CTG-0363, CTG-0808, CTG-0838, CTG-0848, CTG-1212, CTG-1502, CTG-1535, CTG-2011, CTG-2393, CTG-2539 or CTG-2540. After the tumors reached 1000-1500 mm^3, they were harvested and the tumor fragments (approximately 5×5×5 mm^3) were implanted SC in the left flank of the female study mice. Each animal was implanted with a specific passage lot and documented. Tumor growth was monitored twice a week using digital calipers and the tumor volume (TV) was calculated using the formula (0.52×[length×width^2]). When the TV reached an average volume of 150-300 mm^3, animals were matched by tumor size and assigned into Vehicle Control and treatment groups (n=2/group) and dosing was initiated on Day 0. After the initiation of dosing on Day 0, animals were weighed twice per week using a digital scale and TV was measured twice per week and also on the final day of study. The study was completed when the mean tumor volume of Vehicle Control reached 1500 mm^3 or up to Day 60, whichever occurred first.
(§5) Beginning on Day 0, animals were observed daily and weighed twice weekly using a digital scale; data including individual and mean gram weights, mean percent weight change versus Day 0 (% vD0) were recorded for each group and % vD0 plotted at study completion. […] Treatment resulting in a mean % vD0>20% and/or >10% mortality was considered above the maximum tolerated dose. Maximum mean % vD0 (weight nadir) for each treatment group was reported at study completion.
(§6) Inhibition of tumor growth was determined by calculating the percent TGI (100%×[1−(final MTV−initial MTV of a treated group)/(final MTV−initial MTV of the control group)]). Treatment started on Day 0.
(§7) Additional endpoints used to evaluate efficacy were: the number of complete responders (CR), partial responders (PR), and tumor-free survivors (TFS). PRs were considered exclusive of CRs, as were TFS.
(§8) Statistical analyses of anti-tumor efficacy were performed using one-way ANOVA followed by Dunnett's multiple comparisons test (GraphPad Prism version 8.2.0). Significant p-values=<0.05.
Animals were dosed according to the schedule on Table 7-1. The Vehicle Control reached endpoint on Day 18 and the study was terminated on Day 28.

Panc163 = assay: PDAC PDX Panc163 xenograft efficacy (Example 5); assay type: in vivo, NSG mice; conditions: 3 mg/kg intravenously weekly, 4-week treatment period
Protocol: BT5528 and Vehicle were prepared as described in the examples above, and tested in treatment of Pancreatic Ductal Adenocarcinoma (PDAC) in PDX models. PDX models effectively capture patient responses to oncology therapy in a heterogeneous cohort of patients with solid tumors with 80-100% correlation between the PDX and patient response (Izumchenko et al. 2017)
Pancreatic ductal adenocarcinoma patient derived xenograft tumors (PDAC PDX; Panc033 and Panc163) were implanted subcutaneously from source tumors into the flank of NSG mice. Tumor bearing animals were randomized to receive intravenously a weekly dosing of vehicle or 3 mg/kg BT5528. Tumor sizes were monitored by caliper measurements.

CTG-0848 = assay: Champions TumorGraft NSCLC PDX efficacy, model CTG-0848; assay type: in vivo, Mus musculus
Protocol: as §1, §2, §3, §4, §5, §6, §7, §8
Animals were dosed according to the schedule on Table 7-1. The study was terminated on Day 27.

CTG-0192 = assay: Champions TumorGraft NSCLC PDX efficacy, model CTG-0192; assay type: in vivo, Mus musculus
Protocol: as §1, with “After tumors grew to an average of 150-300 mm^3, mice were treated by IV administration Q7Dx4 (n=2) with vehicle or 3 mg/kg of BT5528.” left out
as §2, §3, §4, §5, §6, §7, §8
Animals were dosed according to the schedule on Table 7-1. The study was terminated on Day 34.

[1] = CTG-2011, 3 mg/kg IV Q7Dx4, Day 0-28
[2] = CTG-0848, 3 mg/kg IV Q7Dx4, Day 0-27
[3] = CTG-0192, 3 mg/kg IV Q7Dx5, Day 0-34

CC[C@H](C)[C@@H]([C@@H](CC(=O)N1CCC[C@H]1[C@H](OC)[C@@H](C)C(=O)N[C@H](C)[C@@H](O)c1ccccc1)OC)N(C)C(=O)[C@@H](NC(=O)[C@H](C(C)C)N(C)C(=O)OCc1ccc(NC(=O)[C@H](CCCNC(N)=O)NC(=O)[C@@H](NC(=O)CCCC(=O)ON2C(=O)CCC2=O)C(C)C)cc1)C(C)C [BT5528] (X1-V[Cit][PABC][NMeV]V[Dil][Dolaproine]-X2)
MTV (mean tumor volume) (CTG-2011; 3 mg/kg IV Q7Dx4, Day 18): 826±48 mm^3
TGI (CTG-2011; 3 mg/kg IV Q7Dx4, Day 18): 57%
# CR (complete responders) (CTG-2011; [1]): 0 /0/0
# PR (partial responders) (CTG-2011; [1]): 0 /0/0
# TFS (tumor-free survivors) (CTG-2011; [1]): 0 /0/0
% TGI (CTG-2011; CTG-2011, 3 mg/kg IV Q7Dx4, Day 18): 57%
Day 18 Tumor Volume Mean TV ± SEM (CTG-2011; CTG-2011, BT5528 3 mg/kg IV Q7Dx4, Day 18, n=2): 826 ± 48 mm^3
anti-tumor activity (tumor size by caliper) (Panc163): significant anti-tumor activity from reduced tumor growth rate to decreasing tumor volumes
MTV (mean tumor volume) (CTG-0848; 3 mg/kg Q7Dx4, Day 27): 512±113 mm^3
TGI (CTG-0848; 3 mg/kg Q7Dx4, Day 27): 56%
# CR (complete responders) (CTG-0848; [2]): 0/0/0
# PR (partial responders) (CTG-0848; [2]): 0/0/0
# TFS (tumor-free survivors) (CTG-0848; [2]): 0/0/0
% TGI (CTG-0848; CTG-0848, 3 mg/kg IV Q7Dx4, Day 27): 56%
Day 27 Tumor Volume Mean TV ± SEM (CTG-0848; CTG-0848, BT5528 3 mg/kg IV Q7Dx4, Day 27, n=2): 512 ± 113 mm^3
maximum mean body weight loss (CTG-0192; 3 mg/kg IV Q7Dx5, Day 7): 2.3%
MTV (mean tumor volume) (CTG-0192; 3 mg/kg IV Q7Dx5, Day 34): 740±386 mm^3
TGI (CTG-0192; 3 mg/kg IV Q7Dx5, Day 34): 36%
# CR (complete responders) (CTG-0192; [3]): 0/0/0
# PR (partial responders) (CTG-0192; [3]): 0/0/0
# TFS (tumor-free survivors) (CTG-0192; [3]): 0/0/0
% TGI (CTG-0192; CTG-0192, 3 mg/kg IV Q7Dx5, Day 34): 36%
Day 34 Tumor Volume Mean TV ± SEM (CTG-0192; CTG-0192, BT5528 3 mg/kg IV Q7Dx5, Day 34, n=2): 740 ± 386 mm^3
